Test results reported in article PMC12756739 (ACS Omega, 2025).

How the values were obtained:
[1] = tested on: MCF-7 cell line; assay: Flow cytometric apoptosis/necrosis analysis; assay type: cell-based; settings: at the IC50 concentration
[2] = tested on: NIH3T3 cells; assay: MTT cytotoxicity test, NIH3T3 cell line; assay type: cell-based; settings: Mus musculus, NIH3T3, read-out: IC50 (μM) NIH3T3
[3] = tested on: MCF-7 cell line; assay: MTT cytotoxicity test, MCF-7 cell line; assay type: cell-based; settings: Homo sapiens, MCF7, read-out: IC50 (μM) MCF-7
[4] = biological target: T1, COX-2 enzyme (Homo sapiens, UniProt P35354); assay: biochemical
T1 sequence (P35354 18-604): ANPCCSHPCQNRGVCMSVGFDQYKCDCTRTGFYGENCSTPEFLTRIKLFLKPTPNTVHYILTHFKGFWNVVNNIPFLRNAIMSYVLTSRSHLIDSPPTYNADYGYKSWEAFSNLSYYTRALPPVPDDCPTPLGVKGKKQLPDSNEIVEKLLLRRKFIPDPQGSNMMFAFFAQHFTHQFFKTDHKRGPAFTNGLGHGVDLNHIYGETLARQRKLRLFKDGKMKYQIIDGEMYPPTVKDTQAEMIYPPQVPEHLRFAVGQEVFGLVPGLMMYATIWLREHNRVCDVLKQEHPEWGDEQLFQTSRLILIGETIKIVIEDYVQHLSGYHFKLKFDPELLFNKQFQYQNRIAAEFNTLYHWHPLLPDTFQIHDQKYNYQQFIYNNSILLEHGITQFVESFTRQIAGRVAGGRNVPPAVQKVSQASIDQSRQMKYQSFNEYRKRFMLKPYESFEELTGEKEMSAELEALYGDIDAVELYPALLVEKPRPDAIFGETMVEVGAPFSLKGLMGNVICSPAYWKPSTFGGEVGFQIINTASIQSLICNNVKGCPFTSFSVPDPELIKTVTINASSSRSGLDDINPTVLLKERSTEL

[5] = tested on: A549 cell line; assay: MTT cytotoxicity test, A549 cell line; assay type: cell-based; settings: Homo sapiens, A549, read-out: IC50 (μM) A549
[6] = biological target: EGFR enzyme (Homo sapiens, UniProt P00533); assay: EGFR kinase inhibition assay; assay type: biochemical
Chain of EGFR enzyme (P00533 25-1210): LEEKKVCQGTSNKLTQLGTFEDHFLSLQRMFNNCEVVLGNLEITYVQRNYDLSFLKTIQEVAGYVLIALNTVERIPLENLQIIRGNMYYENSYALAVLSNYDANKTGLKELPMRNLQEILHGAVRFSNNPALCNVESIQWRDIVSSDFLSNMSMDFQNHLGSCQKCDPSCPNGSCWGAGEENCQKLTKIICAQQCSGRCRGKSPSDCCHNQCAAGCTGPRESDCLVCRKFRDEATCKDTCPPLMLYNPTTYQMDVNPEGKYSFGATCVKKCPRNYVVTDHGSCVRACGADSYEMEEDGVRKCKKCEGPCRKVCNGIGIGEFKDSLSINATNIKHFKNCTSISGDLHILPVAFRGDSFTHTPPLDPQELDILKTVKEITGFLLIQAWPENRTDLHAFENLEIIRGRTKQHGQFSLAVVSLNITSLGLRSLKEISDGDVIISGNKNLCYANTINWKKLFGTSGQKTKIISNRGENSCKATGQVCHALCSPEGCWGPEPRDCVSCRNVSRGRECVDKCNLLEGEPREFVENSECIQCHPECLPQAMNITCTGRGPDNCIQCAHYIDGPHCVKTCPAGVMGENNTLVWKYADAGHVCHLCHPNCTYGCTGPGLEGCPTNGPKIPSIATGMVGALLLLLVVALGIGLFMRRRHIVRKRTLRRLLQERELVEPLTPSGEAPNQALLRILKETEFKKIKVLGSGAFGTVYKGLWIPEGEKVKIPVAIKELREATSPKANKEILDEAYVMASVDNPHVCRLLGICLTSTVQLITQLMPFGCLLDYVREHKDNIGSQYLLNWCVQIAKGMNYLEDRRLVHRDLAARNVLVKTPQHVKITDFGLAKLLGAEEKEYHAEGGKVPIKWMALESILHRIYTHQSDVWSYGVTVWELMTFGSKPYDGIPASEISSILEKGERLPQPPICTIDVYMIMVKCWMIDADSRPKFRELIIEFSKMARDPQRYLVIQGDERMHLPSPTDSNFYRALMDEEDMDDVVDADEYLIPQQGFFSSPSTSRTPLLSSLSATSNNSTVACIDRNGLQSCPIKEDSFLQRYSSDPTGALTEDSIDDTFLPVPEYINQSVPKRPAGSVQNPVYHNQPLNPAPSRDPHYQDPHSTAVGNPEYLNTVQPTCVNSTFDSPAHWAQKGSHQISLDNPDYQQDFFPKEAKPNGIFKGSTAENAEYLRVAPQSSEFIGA

[7] = tested on: EGFR^WT; settings: ref Fadaly et al.; cited from earlier work
[8] = tested on: COX-2; settings: ref Fadaly et al.; cited from earlier work
[9] = tested on: EGFR^L858R/T790M; settings: ref Fadaly et al.; cited from earlier work

Structure (SMILES) | % early apoptosis ([1]; lower right quadrant) [%] | % necrosis ([1]; upper left quadrant) [%] | % late apoptosis ([1]; upper right quadrant) [%] | IC50 [2] [µM] | IC50 [3] [µM] | IC50 [4] [µM] | IC50 [5] [µM] | IC50 [6] [µM] | activity against EGFR^WT [7] [µM] | activity against COX-2 [8] [µM] | activity against EGFR^L858R/T790M [9] [µM]
NS(=O)(=O)c1ccc(NC(=O)CSc2nnc(NC(=O)c3ccc(Cl)cc3)s2)cc1 [3j, 4-Chloro-N-(5-((2-oxo-2-((4-sulfamoylphenyl)amino)ethyl)thio)-1,3,4-thiadiazol-2-yl)benzamide] | 20.20 | 4.08 | 15.56 | 85.6 ± 3.16 | 2.38 ± 0.108 | 0.192 ± 0.008 | 20.7 ± 0.984 | 0.02 ± 0.0008 | – | – | –
CS(=O)(=O)c1ccc(-n2cc(/C=N/c3ccc(NC(=O)CO[N+](=O)[O-])cc3)c(-c3ccc(Br)cc3)n2)cc1 [(E)-2-((4-(((3-(4-bromophenyl)-1-(4-(methylsulfonyl)phenyl)-1H-pyrazol-4-yl)methylene)amino)phenyl)amino)-2-oxoethyl nitrate] | – | – | – | – | – | – | – | – | 0.452 | 0.437 | 0.031
